According to patent EP3298025B1, “NEW AMINO ACID SEQUENCES WITH MI[…] DERIVED FROM NAJA ATRA CARDIOTOXIN 1 (CTX-1)” (Università degli Studi di Parma, priority 2015, dated 2016):
Where “and” joins values, the source holds several entries; their conditions need not be identical. Equal values may be shown once. Residues, ends and D or L forms follow the SMILES beside them.

Tests used:
Assay type in all cases: cell-based
E. coli ATCC 25922 [1] = experiment: antimicrobial activity in presence of NaCl
Experimental: Peptides were tested in the ability to inhibit bacterial growth in liquid medium. 50 µl of peptides at a concentration between 0.2 µM and 50 µM were […] E. coli ATCC 25922, Pseudomonas aeruginosa ATCC 27853 and Staphylococcus aureus methicillin resistant ATCC 43300. After 2 hours incubation at 37°C, bacteria were plated on solid culture medium. Bacterial cultures were cultivated without peptides as growth control.
The bacterial suspension and peptides at differing concentrations were put in contact for about 2 hours at 37°C. After this incubation, 20 µl from every well of the plate were transplanted on solid culture medium, McConkey agar for Gram-negative and Columbia agar with 5% of bovine erythrocytes for Gram-positive bacteria. The inoculum was evenly distributed on the agar medium using a single use sterile handle. After an incubation time of 24 hours at 37°C, the bacterial colonies (cfu) were counted.

[2] = system: Burkholderia cepacia ATCC 17759; experiment: micro-dilution in liquid medium and transplant on agar, Gram-negative bacteria; conditions: 2 hours at 37°C, transplant on agar
Experimental: (§1) For each bacterial strain 3-5 morphologically similar colonies from fresh cultures were taken and inoculated in Brain Heart Infusion broth, then incubated at 37°C in agitation at 225 r.p.m. for about 3-4 hours. Then the bacterial suspension was centrifuged at 1000 G for 20 minutes and the pellet resuspended in phosphate buffer pH 7, 10 mM. The turbidity of the bacterial suspension was measured using a spectrophotometer with absorbance of 600 nm; the range 0.08-0.13 equates to about 10^8 cfu/ml. The bacterial suspension was diluted 1:100 in phosphate buffer 10mM to obtain a bacterial concentration of about 10^6 cfu/ml. Within 30 minutes 50 µl of the suspension (10^6 cfu/ml) were inoculated in each well of the microtiter plate, to obtain a bacterial concentration of about 5x10^5 cfu/ml.
(§2) The peptides ability to inhibit the bacterial growth in liquid cultures was tested. 50 µl of each peptides solutions of about 0,2-50 µM were added in microtiter plates with 96 wells with U-shaped bottom, containing the liquid culture medium and one of these bacterial strains: E coli ATCC 25922, Pseudomonas. Aeruginosa ATCC 27853, Proteus mirabilis ATCC 14153, Burkholderia cepacia ATCC 17759, Moraxella catharralis ATCC 25238 or other wild strains of Klebsiella pneumoniae subsp. pneumoniae, Enterobacter cloacae, Acinetobacter baumanii.
(§3) After 2 hours incubation at 37°C, the bacteria were transplanted on solid medium. As a growth reference, bacterial cultures were grown in absence of peptides.
(§4) The bacterial suspension and peptides were put in contact for 2 hours at 37°C, with differing concentrations of the peptide. Then 20 µl from each well of the plate were taken and transferred on solid culture medium, McConkey agar. The inoculum was uniformly distributed on the agar medium with aid of a sterile disposable handle. After an incubation time of 24 hours at 37°C, the bacterial colonies (cfu) were counted.

[3] = system: Acinetobacter baumanii from skin (herpetological); experiment: as above; conditions: 2 hours at 37°C, transplant on agar
Experimental: as §1, §2, §3, §4

E. coli ATCC 25922 [4] = experiment: as above; conditions: 2 hours at 37°C, transplant on agar
Experimental: as §1, §2, §3, §4

[5] = system: Acinetobacter baumanii from cloaca (ornithological); experiment: as above; conditions: 2 hours at 37°C, transplant on agar
Experimental: as §1, §2, §3, §4

[6] = system: Klebsiella pneumoniae subsp. pneumoniae (herpetological); experiment: as above; conditions: 2 hours at 37°C, transplant on agar
Experimental: as §1, §2, §3, §4

[7] = system: Moraxella catharralis ATCC 25238; experiment: as above; conditions: 2 hours at 37°C, transplant on agar
Experimental: as §1, §2, §3, §4

[8] = system: Proteus mirabilis ATCC 14153; experiment: as above; conditions: 2 hours at 37°C, transplant on agar
Experimental: as §1, §2, §3, §4

[9] = system: Pseudomonas aeruginosa ATCC 27853; experiment: as above; conditions: 2 hours at 37°C, transplant on agar
Experimental: as §1, §2, §3, §4

[10] = system: Acinetobacter baumanii from cloaca (herpetological); experiment: as above; conditions: 2 hours at 37°C, transplant on agar
Experimental: as §1, §2, §3, §4

[11] = system: Enterobacter cloacae (herpetological); experiment: as above; conditions: 2 hours at 37°C, transplant on agar
Experimental: as §1, §2, §3, §4

[12] = system: Acinetobacter baumanii (human strain); experiment: as above; conditions: 2 hours at 37°C, transplant on agar
Experimental: as §1, §2, §3, §4

[13] = system: Candida albicans ATCC 10231; experiment: micro-dilution in liquid medium and transplant on solid medium, yeasts; conditions: 2 hours at 37°C, transplant on agar Sabouraud
Experimental: (§5) Candida albicans ATCC 10231, Candida glabrata ATCC 2001 and Malassetia pachydermatis ATCC 14522 were cultivated in Czapek-Dox broth (DIFCO) medium for 48-72 hours. On the day of the test the fungal culture was centrifuged at 1700G for 15 minutes and the pellet resuspended in phosphate buffer, then put in agitation on an electric vortex to disrupt fungal cell aggregations. The suspension was diluted to get a final optical density of 0,5 of the McFarland scale (about 1-5x10^6 cell/ml) (Branda J.A., Krantz A. Effect of yeast on automated cell counting. Am J Clin Pathol., 2006:126, 248-254.).
(§6) Peptides ability to inhibit the fungal growth in liquid cultures was tested. 50 µl of each peptides solutions of about 0.2-50 µM were added in microtiter plates with 96 wells with U-shaped bottom, with liquid culture medium and one of these fungi: Candida albicans ATCC 10231, Candida glabrata ATCC 2001 and Malassetia pachydermatis ATCC 14522. After 2 hours of incubation at 37°C, fungal suspensions were plated on solid culture medium, agar Sabouraud. Fungal cultures were cultivated without peptides as growth control.
(§7) the fungal suspension and peptides at differing concentrations were in contact for about 2 hours at 37°C. After this incubation, 20 µl from every well of the plate were transplanted on solid culture medium, agar Sabouraud. The inoculum was evenly distributed on the agar with the aid of a sterile disposable handle. After an incubation time of 24 hours at 37°C, the fungal colonies (cfu) were counted.

[14] = system: Malassetia pachydermatis ATCC 14522; experiment: as above; conditions: 2 hours at 37°C, transplant on agar Sabouraud
Experimental: as §5, §6, §7

[15] = system: Candida glabrata ATCC 2001; experiment: as above; conditions: 2 hours at 37°C, transplant on agar Sabouraud
Experimental: as §5, §6, §7

Q: How did the “Antimicrobial activity (% to control)” value (E. coli ATCC 25922 [1]; 10 mM NaCl, peptide 12.5 µg/ml) turn out when `CC[C@H](C)[C@H](NC(=O)[C@H](CCCCN)NC(=O)[C@H](Cc1ccc(O)cc1)NC(=O)[C@H](CS)NC(=O)[C@H](CC(C)C)NC(=O)[C@H](CC(N)=O)NC(=O)[C@H](CCCCN)NC(=O)CNC(=O)[C@H](C)NC(=O)[C@@H]1CCCN1C(=O)[C@H](CS)NC(=O)[C@@H](NC(=O)[C@H](CCCCN)NC(=O)[C@H](CO)NC(=O)[C@H](C)NC(=O)[C@@H](NC(=O)[C@@H]1CCCN1C(=O)[C@@H](NC(=O)[C@H](CC(C)C)NC(=O)[C@@H](N)CCCCN)[C@@H](C)CC)[C@@H](C)CC)[C@@H](C)O)C(=O)O` [NCP-0, K LIPIA SKT CPA GKN LCY KI] (H-KLIPIASKTCPAGKNLCYKI-OH; N-terminus and C-terminus assumed) was run?
A: 0%

Q: What about the “Antimicrobial activity (% to control)” value (E. coli ATCC 25922 [1]; 10 mM NaCl, peptide 100 µg/ml) of the same compound?
A: 3%

Q: And the “Antimicrobial activity (% to control)” value (E. coli ATCC 25922 [1]; 125 mM NaCl, peptide 12.5 µg/ml)?
A: 0%

Q: What about the “Antimicrobial activity (% to control)” value (E. coli ATCC 25922 [1]; 125 mM NaCl, peptide 100 µg/ml) of the same compound?
A: 0%

Q: What about the “Antimicrobial activity (% to control)” value (E. coli ATCC 25922 [1]; 250 mM NaCl, peptide 12.5 µg/ml) of the same compound?
A: 0%

Q: And the “Antimicrobial activity (% to control)” value (E. coli ATCC 25922 [1]; 250 mM NaCl, peptide 100 µg/ml)?
A: 0%

Q: And the LD90 [2]?
A: 39.35 µg/ml and 17.8 µM

Q: What about the LD99 [2] of the same compound?
A: 39.43 µg/ml and 18.3 µM

Q: What about the LD99 [3] of the same compound?
A: 117.96 µg/ml and 54.6 µM

Q: And the LD90 (E. coli ATCC 25922 [4])?
A: 152.02 µg/ml and 70 µM

Q: And the LD90 [5]?
A: 126.205 µg/ml and 58.4 µM

Q: And the LD99 [5]?
A: 127,26 µg/ml and 59 µM

Q: What about the LD90 [6] of the same compound?
A: > 100 µg/ml and > 46.3 µM

Q: What about the LD99 [6] of the same compound?
A: > 200 µg/ml and > 92.6 µM

Q: What about the LD90 [7] of the same compound?
A: 0.8 µg/ml and 0.4 µM

Q: What about the LD99 [7] of the same compound?
A: 1.6 µg/ml and 0.7 µM

Q: What about the LD90 [8] of the same compound?
A: > 100 µg/ml and > 46.3 µM

Q: What about the LD99 [8] of the same compound?
A: > 200 µg/ml and > 92.6 µM

Q: What about the LD90 [9] of the same compound?
A: > 100 µg/ml and > 46.3 µM

Q: What about the LD99 [9] of the same compound?
A: > 200 µg/ml and > 92.6 µM

Q: And the LD90 [10]?
A: 142.80 µg/ml and 66.1 µM

Q: And the LD99 [10]?
A: 202.98 µg/ml and 94 µM

Q: What about the LD90 [11] of the same compound?
A: > 100 µg/ml and > 46.3 µM

Q: And the LD99 [11]?
A: > 200 µg/ml and > 92.6 µM

Q: What about the LD90 [12] of the same compound?
A: 123.77 µg/ml and 57.3 µM

Q: What about the LD99 [12] of the same compound?
A: 131.55 µg/ml and 61 µM

Q: What about the LD90 [13] of the same compound?
A: > 100 µg/ml and > 46.3 µM

Q: And the LD99 [13]?
A: > 200 µg/ml and > 92.6 µM

Q: And the LD90 [14]?
A: 150.82 µg/ml and 69.8 µM

Q: And the LD99 [14]?
A: 151.87 µg/ml and 70.3 µM

Q: What about the LD90 [15] of the same compound?
A: > 100 µg/ml and > 46.3 µM

Q: And the LD99 [15]?
A: > 200 µg/ml and > 92.6 µM
